Results on one compound are retold here after patent US6559154B2 (priority 2000, dated 2003).

Series [1] concerns rats. To be noted: rat, in vivo.
For series [2] the following is noted: cited from earlier work.

For the compound `N=C1NC(O)C2C3OC4(O)OC(C(O)C2(N1)C4O)C3(O)CO` (stereo not shown) [TTX, octahydro-12-(hydroxymethyl)-2-imino-5,9:7,10a-dimethano-10aH-(1,3)dioxocino(6,5-d)-pyrimidine-4,7,10,11, 12-pentol], the effective dosage in series [1] was 2.5 µg/mg. Also, in series [2], the “solubility in acidic aqueous solution” value was “soluble”, the “solubility in organic solvents” value is reported as “not soluble” and the solubility in water result was “only slightly soluble”.
